Source: paper PMC9611758, “Bioactive Platinum(IV) Complexes Incorporating Halogenated Phenylacetates” (Molecules, 2022)
Entries after “also recorded” stand apart in the source; their conditions may differ.

Key:
[1] = tested on: HT29 colon; experiment: MTT growth inhibition assay, HT29; type: cell-based, human; details: MTT assay, 72 h
[2] = tested on: U87 glioblastoma; experiment: MTT growth inhibition assay, U87; type: cell-based, human; details: 72 h
[3] = tested on: MCF-7 breast; experiment: MTT growth inhibition assay, MCF-7; type: cell-based, human; details: MTT assay, 72 h
[4] = tested on: A2780 ovarian; experiment: MTT growth inhibition assay, A2780; type: cell-based, human
[5] = tested on: H460 lung; experiment: MTT growth inhibition assay, H460; type: cell-based, human
[6] = tested on: A431 skin; experiment: MTT growth inhibition assay, A431; type: cell-based, human
[7] = tested on: Du145 prostate; experiment: MTT growth inhibition assay, Du145; type: cell-based, human; details: MTT assay, 72 h
[8] = tested on: BE2-C neuroblastoma; experiment: MTT growth inhibition assay, BE2-C; type: cell-based, human; details: 72 h
[9] = tested on: SJ-G2 glioblastoma; experiment: MTT growth inhibition assay, SJ-G2; type: cell-based, human
[10] = tested on: MIA pancreas; experiment: MTT growth inhibition assay, MIA; type: cell-based, human; details: 72 h
[11] = tested on: non-tumour derived MCF10A breast line; experiment: MTT growth inhibition assay, MCF10A; type: cell-based, human; details: 72 h
[12] = tested on: ADDP-resistant ovarian variant; experiment: MTT growth inhibition assay, ADDP; type: cell-based, human; details: MTT assay, 72 h
[13] = tested on: panel of cell lines; experiment: MTT growth inhibition assay, whole panel of cell lines; type: cell-based, human; details: 72 h; for GI50: average over the cell lines tested, MTT assay; for cytotoxicity: panel of cell lines, MTT
[14] = Lipophilicity by HPLC (log kw); type: physicochemical
Excerpt: For lipophilicity measurements, HPLC was utilised instead of the traditional shake-flask method, as described previously. Recent studies have also reported the efficiency of HPLC in measuring the lipophilicity of compounds [79, 80]. Each complex was eluted under several isocratic ratios. A standard curve was generated to calculate the log value of the capacity factor (log k) according to Equation (1). Following Equation (2), the percentage of organic solvent (CH3CN) in the mobile phase from each isocratic run was plotted against log kw (Figure S80). Log kw is the chromatographic lipophilicity index or measure of lipophilicity of the complex, so a higher value corresponds to greater lipophilicity. Because the selected axial ligands in this study contain F, Cl, Br, and I, it was only appropriate to determine the influence of the halogens on the overall lipophilicity of the platinum(IV) complexes. […] Conversely, the least lipophilic complex was the phen derivative containing 4-FPA, 3, with a log kw of 0.25. Furthermore, for the phen derivatives, the order of increasing lipophilicity was 3 > 1 > 5 > 7, which corresponds to the order of increasing size of the halogens, F > Cl > Br > I. This pattern was also observed with the 5,6-Me2phen derivatives (4 > 2 > 6 > 8), thereby confirming that the halogens increased the order of lipophilicity accordingly based on their size.
For lipophilicity measurements, analytical HPLC was utilised. Elution profiles were acquired on an Agilent (Melbourne, VIC, Australia) Technologies 1260 Infinity instrument equipped with a Phenomenex Onyx^TM Monolithic C18-reverse phase column (100 × 4.6 mm, 5 µm pore size) (Sydney, NSW, Australia). The mobile phase consisted of solvents, A (0.06% TFA in d.i.H2O) and B (0.06% TFA in CH3CN/d.i.H2O (90:10)). Potassium iodide was used as an external dead volume marker to determine the dead time of the column. Retention times (TR) were measured at varying isocratic ratios ranging from 30 to 36% of solvent B at 1 mL·min^−1 mL. An injection volume of 10 µL was utilised. Capacity factors were determined according to Equation (1):(1) k=(TR−T0)/T0 where k is the capacity factor, TR is the retention time of the analyte, and T0 represents the dead time. A minimum of four different mobile compositions were used for each complex to calculate k. A linear plot was generated of log k against the concentration of CH3CN in the mobile phase to determine the value of log kw expressed by Equation (2):(2) logk=Sφ+logkw where S is the slope, φ is the concentration of the CH3CN in the mobile phase, and log kw represents the capacity factor of the complex in 100% d.i.H2O. Extrapolation of this linear plot to the y-intercept indicates the log kw value.

[15] = Reduction experiments with AsA by 1H-NMR and 1D-195Pt-NMR; type: physicochemical; details: D2O, 37 °C
Excerpt: Platinum(IV) complexes are reduced to their platinum(II) precursors by intracellular biological reducing agents such as AsA or GSH in tumour cells. However, the precise mechanism by which reduction occurs is not fully understood. In this paper, reduction reaction experiments were undertaken on the synthesised platinum(IV) complexes, 1–8, with the aid of ^1H-NMR and 1D-^195Pt-NMR spectroscopy. The method used for the reduction reaction experiments was adapted from the literature without modifications. A total of 10 mM PBS (~7.4 pH) was selected as media, and AsA was used as the biological reducing agent to investigate the reduction property of 1–8. Prior to the reduction reaction experiments, a control was prepared where each metal complex was dissolved with PBS in D2O. 1D-^195Pt-NMR was measured within the regions of −2800 and 400 ppm (30 min per region), at 37 °C. This was undertaken to confirm that the PBS would not interfere with the reduction process of the metal complexes. […] The approximate time points for the studied complexes at which an estimated 50% reduction had occurred, in the presence of AsA, as represented by T50%, are summarised in Table 6.
The reduction properties of 1–8 were monitored using ^1H-NMR and 1D-^195Pt-NMR spectroscopy on a 400 MHz Bruker (Melbourne, VIC, Australia) Avance Spectrometer. A sequence of ^1H-NMR experiments was carried out for 1 h at 37 °C, followed by 1D-^195Pt-NMR within the regions of −2800 and 400 ppm. An amount of 10 mM PBS (~7.4 pH) was transferred to a vial and reduced to dryness through rotary evaporation. AsA (~1 mg) was combined with the metal complex (~5 mg) and transferred to the vial containing the dried PBS. A total of 600 µL of D2O was then added to the vial to dissolve the complex, AsA, and the PBS together.

[16] = tested on: HT29 colon cells; experiment: ROS detection assay (DCFH-DA); type: cell-based, human; details: for ROS production 24 h / ROS production 48 h / ROS production 72 h: HT29 colon cells, treated at GI50 concentration (TBHP positive control 20 μM); for ROS production relative to the control: HT29 colon cells, 24, 48 and 72 h
Excerpt: Although ROS is required for cancer cell function and progression, it can induce programmed cell death or apoptosis. […] In this study, we report the ROS activity of the studied platinum(IV) complexes, 1–8, together with the individual axial ligands (4-CPA, 4-FPA, 4-BPA, and 4-IPA) in the human cancer cell line, HT29 colon (Figure 19, Table 8, and Figure S95). The ROS potential of their platinum(II) and platinum(IV) precursors in the same cell line is also presented for comparison purposes (Table 8). […] HT29 colon cells were stained by DCFH-DA and then treated with the complexes at each specific GI50 concentration. Upon ROS production, the DCFH-DA produced dichlorodihydrofluorescein, a fluorescent product. The measured fluorescence was, therefore, proportional to the produced ROS.
To investigate the presence of ROS in treated cells, a DCFDA/H2DCFDA-cellular ROS Assay Kit (Abcam, Cambridge, MA, USA) was used, as previously described. A total of 25,000 cells/mL of HT29 cells in DMEM were seeded in 96-well plates. Cells were washed with 1X kit buffer, and then stained with 25 μM 2′,7′-dichlorofluorescein diacetate (DCFH-DA) and incubated for 45 min. DCFH-DA was then removed, and cells were then re-washed with 1X kit buffer, after which phenol red free media was added. Cells were then treated with a GI50 drug concentration for each complex. The plates were directly scanned to measure fluorescence (relative fluorescence units (RFU)) at different time points using the Glo-Max®-Multimode microplate reader (Promega Corporation, Alexandra, VIC, Australia) at an excitation/emission of 485/535 nm. To generate the positive control (20 μM tert-butyl hydroperoxide (TBHP)), cells were washed with 1X kit buffer, and stained with DCFDA (25 μM) for 45 min; this was removed and TBHP was added in phenol red free media, and the resulting solution was scanned as described above.

Row | Structure (SMILES) | GI50 ([1]; Homo sapiens, HT-29) [µM] | GI50 ([2]; Homo sapiens) [µM] | GI50 ([3]; Homo sapiens, MCF7) [µM] | GI50 ([4]; Homo sapiens, A2780, 72 h) [µM] | GI50 ([5]; Homo sapiens, NCI-H460, 72 h) [µM] | GI50 ([6]; Homo sapiens, A-431, 72 h) [µM] | GI50 ([7]; Homo sapiens, DU-145) [µM] | GI50 ([8]; Homo sapiens, BE(2)-C) [µM] | GI50 ([9]; Homo sapiens, SJ-G2, 72 h) [µM] | GI50 ([10]; Homo sapiens) [µM] | ROS production 24 h [16] [RFU] | ROS production 48 h [16] [RFU] | ROS production 72 h [16] [RFU] | GI50 ([11]; Homo sapiens, MCF-10A) [µM] | GI50 ([12]; Homo sapiens) [µM] | GI50 ([13]; Homo sapiens) [µM] | cytotoxicity [13] | ROS production relative to the control [16] | further results
1 | N[C@H]1CCCC[C@@H]1N.O=C(Cc1ccc(Cl)cc1)[O][Pt+2]1([OH])[N]2C=CC=c3ccc4c(c32)[N]1C=CC=4 [Complex 1, [Pt^IV(phen)(SS-DACH)(4-CPA)(OH)]^2+] |  |  |  |  |  |  |  |  |  |  | 272 ± 9 | 368 ± 19 | 409 ± 11 |  |  |  |  |  | GI50 [1]: 0.15 ± 0.064 µM; GI50 [2]: 0.74 ± 0.23 µM; GI50 [3]: 0.86 ± 0.18 µM; GI50 ([4]; 72 h): 0.28 ± 0.067 µM; GI50 ([5]; 72 h): 0.38 ± 0.081 µM; GI50 ([6]; 72 h): 0.56 ± 0.073 µM; GI50 [7]: 0.14 ± 0.043 µM; GI50 [8]: 0.49 ± 0.093 µM; GI50 ([9]; 72 h): 0.42 ± 0.092 µM; GI50 [10]: 0.27 ± 0.042 µM; GI50 [11]: 0.29 ± 0.09 µM; GI50 [12]: 0.29 ± 0.05 µM; GI50 [13]: 0.406 ± 0.09 µM; log kw ([14]; chromatographic lipophilicity index, extrapolated to 100% d.i.H2O): 0.75; log kw (y-intercept of log k versus [CH3CN] % plot, Figure S80) ([14]; linear fit): 0.7472; T50% (approximate time at which 50% reduction occurs) ([15]; 10 mM PBS (~7.4 pH), 1H-NMR): 15 to 20 min; time at which reduction starts ([15]; PBS, 1H-NMR): 5 min; extent of reduction at 1 h (1H-NMR) ([15]; PBS, 1 h): almost entirely reduced to its platinum(II) precursor, PHENSS; extent of reduction 1 h after the final 1H-NMR experiment (1D-195Pt-NMR) ([15]; PBS, regions −2800 and 400 ppm): reduced entirely to PHENSS; also recorded: complete reduction
2 | O=C(O)Cc1ccc(Br)cc1 [Complex 4-BPA, 4-bromophenylacetic acid] | > 50 | > 50 | > 50 | > 50 | > 50 | > 50 | > 50 | > 50 | > 50 | > 50 | 172 ± 9 | 198 ± 10 | 222 ± 13 | > 50 | > 50 | > 50 | did not demonstrate significant cytotoxicity | increase in ROS production relative to the control | 
3 | CC(C)(C)OO [TBHP, tert-butyl hydroperoxide] |  |  |  |  |  |  |  |  |  |  | 514 ± 3 | 336 ± 2 | 332 ± 5 |  |  |  |  |  | 

Second part, led by results:

Row | GI50 ([1]; Homo sapiens, HT-29) [µM] | GI50 ([2]; Homo sapiens) [µM] | GI50 ([3]; Homo sapiens, MCF7) [µM] | GI50 ([4]; Homo sapiens, A2780, 72 h) [µM] | GI50 ([5]; Homo sapiens, NCI-H460, 72 h) [µM] | GI50 ([6]; Homo sapiens, A-431, 72 h) [µM] | GI50 ([7]; Homo sapiens, DU-145) [µM] | GI50 ([8]; Homo sapiens, BE(2)-C) [µM] | GI50 ([9]; Homo sapiens, SJ-G2, 72 h) [µM] | GI50 ([10]; Homo sapiens) [µM] | Structure (SMILES) | ROS production 24 h [16] [RFU] | ROS production 48 h [16] [RFU] | ROS production 72 h [16] [RFU] | GI50 ([11]; Homo sapiens, MCF-10A) [µM] | GI50 ([12]; Homo sapiens) [µM] | GI50 ([13]; Homo sapiens) [µM] | cytotoxicity [13] | ROS production relative to the control [16] | further results
4 | > 50 | > 50 | > 50 | > 50 | > 50 | > 50 | > 50 | > 50 | > 50 | > 50 | O=C(O)Cc1ccc(Cl)cc1 [Complex 4-CPA, 4-chlorophenylacetic acid] | 167 ± 13.2 | 207 ± 14.5 | 233 ± 10.4 | > 50 | > 50 | > 50 | did not demonstrate significant cytotoxicity | increase in ROS production relative to the control | 
5 | > 50 | > 50 | > 50 | > 50 | > 50 | > 50 | > 50 | > 50 | > 50 | > 50 | O=C(O)Cc1ccc(F)cc1 [Complex 4-FPA, 4-fluorophenylacetic acid] | 197 ± 8 | 224 ± 11 | 236 ± 6 | > 50 | > 50 | > 50 | did not demonstrate significant cytotoxicity | increase in ROS production relative to the control | 
6 | > 50 | > 50 | > 50 | > 50 | > 50 | > 50 | > 50 | > 50 | > 50 | > 50 | O=C(O)Cc1ccc(I)cc1 [Complex 4-IPA, 4-iodophenylacetic acid] | 137 ± 7 | 182 ± 12 | 206 ± 9 | > 50 | > 50 | > 50 | did not demonstrate significant cytotoxicity | increase in ROS production relative to the control | 
